Assay results reported in patent US12421243B2, “Pharmaceutically effective compounds inhibiting selectively the myosin 2 isoforms” (PRINTNET KERESKEDELMI ÉS SZOLGÁLTATÓ KFT., priority 2018, dated 2025).

What was measured:
[1] = target: recombinant human non-muscle myosin 2 NM2C (Homo sapiens, UniProt Q7Z406); experiment: actomyosin steady state ATPase measurement, NM2C; assay type: biochemical; conditions: for IC50: concentration required for semi-maximal inhibition of ATPase; for % inhibition. complete NM2C: maximum value of inhibition of ATPase activity; for inhibition at 5 µM: read-out: % inhibition at 5 μM (or 10 μM if racemate) NM2C, 5 μM (10 μM if racemate); for inhibition at 5 µM / inhibition at 50 µM: ATPase activity; for inhibition at 50 µM: read-out: % inhibition at 50 μM (or 100 μM if racemate) NM2C, 50 μM (100 μM if racemate); for Inhibition (%) NM2C: maximum inhibition, compounds in IC50 range 1-5 μM
Description: (§1) […]; (ii) the concentration required for semi-maximal inhibition.

[2] = target: isolated smooth muscle myosin (UniProt P10587); assay type: biochemical, chamois; conditions: for % inhibition at 5 μM (or 10 μM if racemate) Smooth: 5 μM (10 μM if racemate); for % inhibition at 5 μM (or 10 μM if racemate) Smooth / % inhibition at 50 μM (or 100 μM if racemate) Smooth: ATPase activity; for % inhibition at 50 μM (or 100 μM if racemate) Smooth: 50 μM (100 μM if racemate); for % inhibition. complete Smooth: maximum value of inhibition of ATPase activity
[3] = target: T1, isolated porcine cardiac ventricular myocardium (cardiac) (Sus scrofa, UniProt P79293); experiment: actomyosin steady state ATPase measurement, cardiac myosin; assay type: biochemical; conditions: for IC50: concentration required for semi-maximal inhibition of ATPase; for % inhibition. complete cardiac: maximum value of inhibition of ATPase activity; for inhibition at 5 µM: read-out: % inhibition at 5 μM (or 10 μM if racemate) cardiac, 5 μM (10 μM if racemate); for inhibition at 5 µM / inhibition at 50 µM: ATPase activity; for inhibition at 50 µM: read-out: % inhibition at 50 μM (or 100 μM if racemate) cardiac, 50 μM (100 μM if racemate)
T1 construct: isolated porcine cardiac ventricular myocardium (cardiac); from tissue; host or cells: porcine cardiac ventricle
T1 sequence (P79293 whole entry): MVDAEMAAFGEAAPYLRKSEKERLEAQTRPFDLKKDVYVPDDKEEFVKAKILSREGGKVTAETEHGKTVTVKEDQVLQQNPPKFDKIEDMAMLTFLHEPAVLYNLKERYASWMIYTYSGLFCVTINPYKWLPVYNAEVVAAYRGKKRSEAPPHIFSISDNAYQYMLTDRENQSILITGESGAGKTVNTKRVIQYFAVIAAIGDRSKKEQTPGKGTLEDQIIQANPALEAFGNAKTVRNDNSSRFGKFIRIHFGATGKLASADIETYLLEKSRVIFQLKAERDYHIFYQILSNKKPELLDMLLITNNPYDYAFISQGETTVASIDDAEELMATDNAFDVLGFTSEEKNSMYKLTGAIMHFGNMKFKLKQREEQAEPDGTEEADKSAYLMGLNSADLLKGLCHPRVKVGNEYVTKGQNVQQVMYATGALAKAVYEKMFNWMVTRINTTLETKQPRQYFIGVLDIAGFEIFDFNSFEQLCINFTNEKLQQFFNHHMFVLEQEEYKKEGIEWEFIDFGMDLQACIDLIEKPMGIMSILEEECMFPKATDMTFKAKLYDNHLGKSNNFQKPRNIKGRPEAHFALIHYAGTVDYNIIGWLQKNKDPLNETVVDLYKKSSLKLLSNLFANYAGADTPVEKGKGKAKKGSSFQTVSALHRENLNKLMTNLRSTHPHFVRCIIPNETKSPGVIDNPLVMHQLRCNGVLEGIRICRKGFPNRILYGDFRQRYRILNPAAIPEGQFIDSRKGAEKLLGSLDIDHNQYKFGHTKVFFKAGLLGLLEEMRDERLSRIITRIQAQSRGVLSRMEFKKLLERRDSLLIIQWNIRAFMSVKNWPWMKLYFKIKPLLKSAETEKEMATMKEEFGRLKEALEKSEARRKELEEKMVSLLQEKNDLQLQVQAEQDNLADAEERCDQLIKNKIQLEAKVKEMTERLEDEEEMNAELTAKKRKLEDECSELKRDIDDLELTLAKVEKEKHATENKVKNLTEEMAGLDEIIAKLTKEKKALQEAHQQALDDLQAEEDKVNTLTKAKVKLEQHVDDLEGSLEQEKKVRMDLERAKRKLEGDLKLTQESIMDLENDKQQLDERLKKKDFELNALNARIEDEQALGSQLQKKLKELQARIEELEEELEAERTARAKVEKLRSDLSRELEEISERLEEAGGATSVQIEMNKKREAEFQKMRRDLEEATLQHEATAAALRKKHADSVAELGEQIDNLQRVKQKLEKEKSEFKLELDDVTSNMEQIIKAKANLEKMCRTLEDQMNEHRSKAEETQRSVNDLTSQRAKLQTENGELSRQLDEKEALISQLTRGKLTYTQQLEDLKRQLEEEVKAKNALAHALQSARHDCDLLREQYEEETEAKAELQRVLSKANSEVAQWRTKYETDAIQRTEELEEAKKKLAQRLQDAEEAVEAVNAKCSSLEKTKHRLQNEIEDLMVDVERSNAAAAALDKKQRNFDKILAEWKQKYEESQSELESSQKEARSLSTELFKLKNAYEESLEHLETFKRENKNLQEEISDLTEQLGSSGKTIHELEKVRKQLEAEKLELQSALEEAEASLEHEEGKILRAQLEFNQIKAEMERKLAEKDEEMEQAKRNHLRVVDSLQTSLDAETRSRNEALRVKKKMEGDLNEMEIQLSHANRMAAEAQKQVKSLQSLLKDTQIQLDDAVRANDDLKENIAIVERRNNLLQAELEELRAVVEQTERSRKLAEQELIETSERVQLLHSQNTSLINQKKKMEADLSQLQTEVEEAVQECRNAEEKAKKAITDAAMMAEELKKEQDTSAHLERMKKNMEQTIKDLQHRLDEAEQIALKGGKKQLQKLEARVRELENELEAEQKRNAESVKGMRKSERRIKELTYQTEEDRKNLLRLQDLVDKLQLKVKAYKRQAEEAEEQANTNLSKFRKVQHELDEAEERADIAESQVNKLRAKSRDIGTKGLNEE
Description: as §1

[4] = target: recombinant Dictyostelium miozin (Dictyostelium) (Dictyostelium discoideum, UniProt P08799); experiment: actomyosin steady state ATPase measurement, Dictyostelium myosin; assay type: biochemical; conditions: for IC50: concentration required for semi-maximal inhibition of ATPase, read-out: IC50 (μM) Dicty; for % inhibition. complete Dicty: maximum value of inhibition of ATPase activity; for inhibition at 5 µM: read-out: % inhibition at 5 μM (or 10 μM if racemate) Dicty; for inhibition at 50 µM: read-out: % inhibition at 50 μM (or 100 μM if racemate) Dicty
Sequence of recombinant Dictyostelium miozin (Dictyostelium) (P08799 whole entry): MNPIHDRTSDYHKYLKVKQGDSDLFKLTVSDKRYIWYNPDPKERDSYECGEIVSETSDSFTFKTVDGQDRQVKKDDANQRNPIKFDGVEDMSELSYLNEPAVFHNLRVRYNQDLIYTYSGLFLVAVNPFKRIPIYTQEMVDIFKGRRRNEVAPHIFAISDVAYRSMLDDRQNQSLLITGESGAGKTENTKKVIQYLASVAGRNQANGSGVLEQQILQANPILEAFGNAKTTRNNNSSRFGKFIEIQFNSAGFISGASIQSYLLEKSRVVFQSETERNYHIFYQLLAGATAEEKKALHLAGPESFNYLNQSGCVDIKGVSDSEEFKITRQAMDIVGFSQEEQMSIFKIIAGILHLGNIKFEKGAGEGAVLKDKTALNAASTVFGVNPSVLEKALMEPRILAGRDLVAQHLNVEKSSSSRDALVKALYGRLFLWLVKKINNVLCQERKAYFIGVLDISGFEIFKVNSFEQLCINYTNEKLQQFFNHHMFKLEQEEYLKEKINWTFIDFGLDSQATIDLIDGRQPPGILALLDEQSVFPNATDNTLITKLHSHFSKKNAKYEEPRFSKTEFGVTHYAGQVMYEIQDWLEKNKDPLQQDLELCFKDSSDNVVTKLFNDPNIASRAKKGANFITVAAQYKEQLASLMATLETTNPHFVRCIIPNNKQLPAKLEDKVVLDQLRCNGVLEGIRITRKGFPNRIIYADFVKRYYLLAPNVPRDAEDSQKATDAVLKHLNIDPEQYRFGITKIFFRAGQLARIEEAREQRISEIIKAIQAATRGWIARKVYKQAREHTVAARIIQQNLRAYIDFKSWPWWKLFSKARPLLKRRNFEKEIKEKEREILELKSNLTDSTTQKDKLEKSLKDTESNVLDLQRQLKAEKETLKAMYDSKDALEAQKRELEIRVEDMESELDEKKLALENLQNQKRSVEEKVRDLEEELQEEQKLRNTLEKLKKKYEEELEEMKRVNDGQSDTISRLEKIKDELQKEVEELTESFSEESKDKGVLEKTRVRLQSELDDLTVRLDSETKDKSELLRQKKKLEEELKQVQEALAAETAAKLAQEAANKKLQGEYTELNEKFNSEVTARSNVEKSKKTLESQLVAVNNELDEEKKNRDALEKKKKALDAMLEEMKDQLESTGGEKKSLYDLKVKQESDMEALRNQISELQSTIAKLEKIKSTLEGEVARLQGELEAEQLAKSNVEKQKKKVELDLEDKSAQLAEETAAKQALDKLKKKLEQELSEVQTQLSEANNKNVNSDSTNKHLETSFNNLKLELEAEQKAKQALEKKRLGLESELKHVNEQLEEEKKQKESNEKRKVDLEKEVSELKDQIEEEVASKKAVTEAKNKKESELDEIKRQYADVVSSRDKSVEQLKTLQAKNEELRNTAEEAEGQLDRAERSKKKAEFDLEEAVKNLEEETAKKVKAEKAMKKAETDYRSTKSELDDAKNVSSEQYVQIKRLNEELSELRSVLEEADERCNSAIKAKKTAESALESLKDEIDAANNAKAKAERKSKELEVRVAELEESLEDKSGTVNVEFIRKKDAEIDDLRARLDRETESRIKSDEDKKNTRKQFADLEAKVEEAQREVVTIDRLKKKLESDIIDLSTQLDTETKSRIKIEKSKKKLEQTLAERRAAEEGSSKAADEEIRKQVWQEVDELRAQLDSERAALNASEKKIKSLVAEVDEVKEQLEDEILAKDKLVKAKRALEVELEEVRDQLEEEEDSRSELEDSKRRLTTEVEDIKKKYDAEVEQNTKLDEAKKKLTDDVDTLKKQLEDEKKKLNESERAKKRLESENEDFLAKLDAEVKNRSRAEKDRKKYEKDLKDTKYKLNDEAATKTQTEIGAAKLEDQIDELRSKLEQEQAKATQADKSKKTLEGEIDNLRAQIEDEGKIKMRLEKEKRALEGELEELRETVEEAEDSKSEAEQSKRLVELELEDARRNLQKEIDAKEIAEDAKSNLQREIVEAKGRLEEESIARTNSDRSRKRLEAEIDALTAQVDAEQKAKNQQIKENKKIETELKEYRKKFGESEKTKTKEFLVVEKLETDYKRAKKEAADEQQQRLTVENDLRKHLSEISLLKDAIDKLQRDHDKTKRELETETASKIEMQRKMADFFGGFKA
Description: as §1

[5] = target: isolated smooth muscle myosin (UniProt P10587); assay type: biochemical, chamois; conditions: concentration required for semi-maximal inhibition of ATPase
Description: (ii) the concentration required for semi-maximal inhibition.

[6] = test system: isolated rabbit skeletal muscle myosin (skeletal); experiment: actomyosin steady state ATPase measurement, skeletal muscle myosin; assay type: biochemical; conditions: for % inhibition at 5 μM (or 10 μM if racemate) Skeletal: 5 μM (10 μM if racemate); for % inhibition at 5 μM (or 10 μM if racemate) Skeletal / % inhibition at 50 μM (or 100 μM if racemate) Skeletal: ATPase activity; for % inhibition at 50 μM (or 100 μM if racemate) Skeletal: 50 μM (100 μM if racemate); for IC50: concentration required for semi-maximal inhibition of ATPase; for % inhibition. complete Skeletal: maximum value of inhibition of ATPase activity; for Inhibition (%) skeletal: maximum inhibition, compounds in IC50 range 1-2 μM
Description: as §1

SMILES	IC50 [1] [µM]	% inhibition. complete NM2C [1] [%]	inhibition at 5 µM [1] [%]	inhibition at 50 µM [1] [%]	% inhibition at 5 μM (or 10 μM if racemate) Smooth [2] [%]	% inhibition at 50 μM (or 100 μM if racemate) Smooth [2] [%]	% inhibition. complete Smooth [2] [%]	IC50 [3] [µM]	% inhibition. complete cardiac [3] [%]	inhibition at 5 µM [3] [%]	inhibition at 50 µM [3] [%]	IC50 [4] [µM]	% inhibition. complete Dicty [4] [%]	inhibition at 5 µM [4] [%]	inhibition at 50 µM [4] [%]	IC50 [5] [µM]	% inhibition at 5 μM (or 10 μM if racemate) Skeletal [6] [%]	% inhibition at 50 μM (or 100 μM if racemate) Skeletal [6] [%]	IC50 [6] [µM]	% inhibition. complete Skeletal [6] [%]	further results
O=C1c2ccsc2N=C2N(c3ccc(OC(F)(F)F)cc3)CC[C@@]12O [Compound 212, (9S)-9-hydroxy-12-[4-(trifluoromethoxy)phenyl]-4-thia-2,12-diazatricyclo[7.3.0.0^3,7]dodeca-1,3(7),5-trien-8-one]	6.4	61	19	56	24	61	74	5.9	100	43	93	10.9	84	26	69	10.4	94	97	0.19	98	Inhibition (%) Dicty ([4]; maximum inhibition, compounds in IC50 range 1-11 μM): 84%
COc1ccc(N2CC[C@@]3(O)C(=O)c4ccsc4N=C23)cn1 [Compound 219, (9S)-9-Hydroxy-12-(6-methoxypyridin-3-yl)-4-thia-2,12-diazatricyclo[7.3.0.0^3,7]dodeca-1,3(7),5-trien-8-one]	8.1	21	8	18	15	32	36	4.1	84	44	78	43	100	6	56	6.9	69	91	1.8	94	Inhibition (%) cardiac ([3]; maximum inhibition, compounds in IC50 range 3-6 μM): 84%; Inhibition (%) skeletal [6]: 94%
Cc1cc2c(s1)N=C1N(c3ccc(N)cc3)CCC1(O)C2=O (stereo not shown) [Compound 221, 12-(4-Aminophenyl)-9-hydroxy-5-methyl-4-thia-2,12-diazatricyclo[7.3.0.0^3,7]dodeca-1,3(7),5-trien-8-one]	4.1	61	32	56	43	87	97	0.9	79	65	78	11.6	100	27	85	6	65	91	1.8	92	Inhibition (%) NM2C [1]: 61%; Inhibition (%) skeletal [6]: 92%
Cc1cc2c(s1)N=C1N(c3ccc(CO)cc3)CCC1(O)C2=O (stereo not shown) [Compound 227, 9-Hydroxy-12-[4-(hydroxymethyl)phenyl]-5-methyl-4-thia-2,12-diazatricyclo[7.3.0.0^3,7]dodeca-1,3(7),5-trien-8-one]	2.8	84	52	80	54	92	99	0.76	90	77	89	5.1	100	47	96	4	82	96	0.83	97	Inhibition (%) NM2C [1]: 84%
O=C1c2ccsc2N=C2N(c3cccs3)CC[C@@]12O [Compound 218, (9S)-9-Hydroxy-12-(thiophen-2-yl)-4-thia-2,12-diazatricyclo[7.3.0.0^3,7]dodeca-1,3(7),5-trien-8-one]	44	20	2	11	10	24	28	2.7	79	49	75	78	100	4	39	8.1	50	85	4.2	92	–
Cc1ccc(N2CC[C@@]3(O)C(=O)c4ccsc4N=C23)cc1 [Compound 233, (9S)-9-Hydroxy-12-(4-methylphenyl)-4-thia-2,12-diazatricyclo[7.3.0.0^3,7]dodeca-1,3(7),5-trien-8-one]	2.1	72	48	69	29	70	83	0.82	88	74	87	17	100	21	76	8.8	92	98	0.32	98	Inhibition (%) NM2C [1]: 72%
Cc1cc2c(s1)N=C1N(c3cccs3)CCC1(O)C2=O (stereo not shown) [Compound 229, 9-Hydroxy-5-methyl-12-(thiophen-2-yl)-4-thia-2,12-diazatricyclo[7.3.0.0^3,7]dodeca-1,3(7),5-trien-8-one]	1.1	100	78	98	54	87	93	1.4	93	54	87	1.4	97	74	95	3.4	87	96	0.61	97	Inhibition (%) smooth ([2]; maximum inhibition, compounds in IC50 range 1-5 μM): 93%
